This is an account of results in patent publication US8137509B2, “Asymmetric synthesis of rocaglamides via enantioselective photocycloaddition mediated by chiral brønsted acids” (Trustees of Boston University, priority 2006, dated 2012).

The test system of one series is human cancer cells. The conditions noted are these: compared with TAXOL; cited from earlier work.

Consider `COC(=O)C1C(c2ccccc2)[C@]2(c3ccc(OC)cc3)Oc3cc(OC)cc(OC)c3[C@@]1(O)C2=O` (some centres unmarked), for which the melting point (in general, the temperature, or range, at which the solid turns liquid) was 83 to 85 °C.
As to `COC(=O)[C@H]1[C@@H](O)[C@@]2(O)c3c(OC)cc(O[C@@H]4O[C@@H]([C@H](O)CO)CO[C@H]4OC)cc3O[C@@]2(c2ccc(OC)cc2)[C@@H]1c1ccccc1` [silvestrol B, silvestrol], the cytotoxic activity entry in the series with human cancer cells is given as “comparable to the anticancer drug TAXOL®”.
